Data: ChEMBL document CHEMBL1201861, “Genomics of Drug Sensitity in Cancer screening data, Wellcome Trust Sanger Institute”

Legend:
CAL-85-1 = test: cells; type: functional, cell-based, Homo sapiens; conditions: Homo sapiens, CAL-85-1
Description: SANGER: Inhibition of human CAL-85-1 cell growth in a cell viability assay.

IGR-1 = test: cells; type: functional, cell-based, Homo sapiens; conditions: Homo sapiens, IGR-1
Description: SANGER: Inhibition of human IGR-1 cell growth in a cell viability assay.

COLO-680N = test: cells; type: functional, cell-based, Homo sapiens; conditions: Homo sapiens, COLO-680N
Description: SANGER: Inhibition of human COLO-680N cell growth in a cell viability assay.

CAL-54 = test: cells; type: functional, cell-based, Homo sapiens; conditions: Homo sapiens, CAL-54
Description: SANGER: Inhibition of human CAL-54 cell growth in a cell viability assay.

NCI-H2052 = test: cells; type: functional, cell-based, Homo sapiens; conditions: Homo sapiens, NCI-H2052
Description: SANGER: Inhibition of human NCI-H2052 cell growth in a cell viability assay.

GMS-10 = test: cells; type: functional, cell-based, Homo sapiens; conditions: Homo sapiens, GMS-10
Description: SANGER: Inhibition of human GMS-10 cell growth in a cell viability assay.

VM-CUB-1 = test: cells; type: functional, cell-based, Homo sapiens; conditions: Homo sapiens, VM-CUB-1
Description: SANGER: Inhibition of human VM-CUB-1 cell growth in a cell viability assay.

SK-LU-1 = test: cells; type: functional, cell-based, Homo sapiens; conditions: Homo sapiens, SK-LU-1
Description: SANGER: Inhibition of human SK-LU-1 cell growth in a cell viability assay.

HCC1419 = test: cells; type: functional, cell-based, Homo sapiens; conditions: Homo sapiens, HCC1419
Description: SANGER: Inhibition of human HCC1419 cell growth in a cell viability assay.

BCPAP = test: cells; type: functional, cell-based, Homo sapiens; conditions: Homo sapiens, BCPAP
Description: SANGER: Inhibition of human BCPAP cell growth in a cell viability assay.

OC-314 = test: cells; type: functional, cell-based, Homo sapiens; conditions: Homo sapiens, OC-314
Description: SANGER: Inhibition of human OC-314 cell growth in a cell viability assay.

HN = test: cells; type: functional, cell-based, Homo sapiens; conditions: Homo sapiens, HN
Description: SANGER: Inhibition of human HN cell growth in a cell viability assay.

RO82-W-1 = test: cells; type: functional, cell-based, Homo sapiens; conditions: Homo sapiens, RO82-W-1
Description: SANGER: Inhibition of human RO82-W-1 cell growth in a cell viability assay.

PC-3 = test: cells; type: functional, cell-based, Homo sapiens; conditions: Homo sapiens, PC-3
Description: SANGER: Inhibition of human PC-3 cell growth in a cell viability assay.

BXPC-3 = test: cells; type: functional, cell-based, Homo sapiens; conditions: Homo sapiens, BXPC-3
Description: SANGER: Inhibition of human BxPC-3 cell growth in a cell viability assay.

HuP-T3 = test: cells; type: functional, cell-based, Homo sapiens; conditions: Homo sapiens, HuP-T3
Description: SANGER: Inhibition of human HuP-T3 cell growth in a cell viability assay.

GAMG = test: cells; type: functional, cell-based, Homo sapiens; conditions: Homo sapiens, GAMG
Description: SANGER: Inhibition of human GAMG cell growth in a cell viability assay.

CAKI-1 = test: cells; type: functional, cell-based, Homo sapiens; conditions: Homo sapiens, CAKI-1
Description: SANGER: Inhibition of human CAKI-1 cell growth in a cell viability assay.

NCI-H596 = test: cells; type: functional, cell-based, Homo sapiens; conditions: Homo sapiens, NCI-H596
Description: SANGER: Inhibition of human NCI-H596 cell growth in a cell viability assay.

GP5d = test: cells; type: functional, cell-based, Homo sapiens; conditions: Homo sapiens, GP5d
Description: SANGER: Inhibition of human GP5d cell growth in a cell viability assay.

SNU-387 = test: cells; type: functional, cell-based, Homo sapiens; conditions: Homo sapiens, SNU-387
Description: SANGER: Inhibition of human SNU-387 cell growth in a cell viability assay.

KYSE-510 = test: cells; type: functional, cell-based, Homo sapiens; conditions: Homo sapiens, KYSE-510
Description: SANGER: Inhibition of human KYSE-510 cell growth in a cell viability assay.

RVH-421 = test: cells; type: functional, cell-based, Homo sapiens; conditions: Homo sapiens, RVH-421
Description: SANGER: Inhibition of human RVH-421 cell growth in a cell viability assay.

NCI-H28 = test: cells; type: functional, cell-based, Homo sapiens; conditions: Homo sapiens, NCI-H28
Description: SANGER: Inhibition of human NCI-H28 cell growth in a cell viability assay.

KNS-62 = test: cells; type: functional, cell-based, Homo sapiens; conditions: Homo sapiens, KNS-62
Description: SANGER: Inhibition of human KNS-62 cell growth in a cell viability assay.

HO-1-N-1 = test: cells; type: functional, cell-based, Homo sapiens; conditions: Homo sapiens, HO-1-N-1
Description: SANGER: Inhibition of human HO-1-N-1 cell growth in a cell viability assay.

NCI-H1563 = test: cells; type: functional, cell-based, Homo sapiens; conditions: Homo sapiens, NCI-H1563
Description: SANGER: Inhibition of human NCI-H1563 cell growth in a cell viability assay.

MEL-HO = test: cells; type: functional, cell-based, Homo sapiens; conditions: Homo sapiens, MEL-HO
Description: SANGER: Inhibition of human MEL-HO cell growth in a cell viability assay.

HT-1080 = test: cells; type: functional, cell-based, Homo sapiens; conditions: Homo sapiens, HT-1080
Description: SANGER: Inhibition of human HT-1080 cell growth in a cell viability assay.

M059J = test: cells; type: functional, cell-based, Homo sapiens; conditions: Homo sapiens, M059J
Description: SANGER: Inhibition of human M059J cell growth in a cell viability assay.

SW1463 = test: cells; type: functional, cell-based, Homo sapiens; conditions: Homo sapiens, SW1463
Description: SANGER: Inhibition of human SW1463 cell growth in a cell viability assay.

NCI-H630 = test: cells; type: functional, cell-based, Homo sapiens; conditions: Homo sapiens, NCI-H630
Description: SANGER: Inhibition of human NCI-H630 cell growth in a cell viability assay.

OVCAR-3 = test: cells; type: functional, cell-based, Homo sapiens; conditions: Homo sapiens, OVCAR-3
Description: SANGER: Inhibition of human OVCAR-3 cell growth in a cell viability assay.

EB2 = test: cells; type: functional, cell-based, Homo sapiens; conditions: Homo sapiens, EB2
Description: SANGER: Inhibition of human EB2 cell growth in a cell viability assay.

MONO-MAC-6 = test: cells; type: functional, cell-based, Homo sapiens; conditions: Homo sapiens, MONO-MAC-6
Description: SANGER: Inhibition of human MONO-MAC-6 cell growth in a cell viability assay.

SCLC-21H = test: cells; type: functional, cell-based, Homo sapiens; conditions: Homo sapiens, SCLC-21H
Description: SANGER: Inhibition of human SCLC-21H cell growth in a cell viability assay.

Kasumi 1 = test: cells; type: functional, cell-based, Homo sapiens; conditions: Homo sapiens, Kasumi 1
Description: SANGER: Inhibition of human KASUMI-1 cell growth in a cell viability assay.

COR-L279 = test: SANGER: Inhibition of human COR-L279 cell growth in a cell viability assay.; type: functional, cell-based; conditions: Homo sapiens, COR-L279
LU-165 = test: cells; type: functional, cell-based, Homo sapiens; conditions: Homo sapiens, LU-165
Description: SANGER: Inhibition of human LU-165 cell growth in a cell viability assay.

NCI-H1963 = test: cells; type: functional, cell-based, Homo sapiens; conditions: Homo sapiens, NCI-H1963
Description: SANGER: Inhibition of human NCI-H1963 cell growth in a cell viability assay.

NCI-H2081 = test: cells; type: functional, cell-based, Homo sapiens; conditions: Homo sapiens, NCI-H2081
Description: SANGER: Inhibition of human NCI-H2081 cell growth in a cell viability assay.

CAL-148 = test: cells; type: functional, cell-based, Homo sapiens; conditions: Homo sapiens, CAL-148
Description: SANGER: Inhibition of human CAL-148 cell growth in a cell viability assay.

LB647-SCLC = test: cells; type: functional, cell-based, Homo sapiens; conditions: Homo sapiens, LB647-SCLC
Description: SANGER: Inhibition of human LB647-SCLC cell growth in a cell viability assay.

DG-75 = test: cells; type: functional, cell-based, Homo sapiens; conditions: Homo sapiens, DG-75
Description: SANGER: Inhibition of human DG-75 cell growth in a cell viability assay.

IMR-5 = test: cells; type: functional, cell-based, Homo sapiens; conditions: Homo sapiens, IMR-5
Description: SANGER: Inhibition of human IMR-5 cell growth in a cell viability assay.

BL-70 = test: SANGER: Inhibition of human BL-70 cell growth in a cell viability assay.; type: functional, cell-based; conditions: Homo sapiens, BL-70
NCI-H2171 = test: cells; type: functional, cell-based, Homo sapiens; conditions: Homo sapiens, NCI-H2171
Description: SANGER: Inhibition of human NCI-H2171 cell growth in a cell viability assay.

SUP-T1 = test: cells; type: functional, cell-based, Homo sapiens; conditions: Homo sapiens, SUP-T1
Description: SANGER: Inhibition of human SUP-T1 cell growth in a cell viability assay.

## CC1(C)CNc2cc(NC(=O)c3cccnc3NCc3ccncc3)ccc21 [MOTESANIB]
CAL-85-1
  IC50: > 2 µM
IGR-1
  IC50: > 2 µM
COLO-680N
  IC50: > 2 µM
CAL-54
  IC50: > 2 µM
NCI-H2052
  IC50: > 2 µM
GMS-10
  IC50: > 2 µM
VM-CUB-1
  IC50: > 2 µM
SK-LU-1
  IC50: > 2 µM
HCC1419
  IC50: > 2 µM
BCPAP
  IC50: > 2 µM
OC-314
  IC50: > 2 µM
HN
  IC50: > 2 µM
RO82-W-1
  IC50: > 2 µM
PC-3
  IC50: > 2 µM
BXPC-3
  IC50: > 2 µM
HuP-T3
  IC50: > 2 µM
GAMG
  IC50: > 2 µM
CAKI-1
  IC50: > 2 µM
NCI-H596
  IC50: > 2 µM
GP5d
  IC50: > 2 µM
SNU-387
  IC50: > 2 µM
KYSE-510
  IC50: > 2 µM
RVH-421
  IC50: > 2 µM
NCI-H28
  IC50: > 2 µM
KNS-62
  IC50: > 2 µM
HO-1-N-1
  IC50: > 2 µM
NCI-H1563
  IC50: > 2 µM
MEL-HO
  IC50: > 2 µM
HT-1080
  IC50: > 2 µM
M059J
  IC50: > 2 µM
SW1463
  IC50: > 2 µM
NCI-H630
  IC50: > 2 µM
OVCAR-3
  IC50: > 2 µM

## N#Cc1c(O)c2c(-c3ccc(-c4ccccc4O)cc3)csc2[nH]c1=O
CAL-85-1
  IC50: > 1.02 µM
IGR-1
  IC50: > 1.02 µM
EB2
  IC50: 0.142 µM
COLO-680N
  IC50: > 1.02 µM
CAL-54
  IC50: > 1.02 µM
MONO-MAC-6
  IC50: 0.114 µM
SCLC-21H
  IC50: > 1.02 µM
NCI-H2052
  IC50: > 1.02 µM
GMS-10
  IC50: > 1.02 µM
VM-CUB-1
  IC50: > 1.02 µM
SK-LU-1
  IC50: > 1.02 µM
HCC1419
  IC50: > 1.02 µM
BCPAP
  IC50: > 1.02 µM
Kasumi 1
  IC50: 0.0418 µM
COR-L279
  IC50: 0.253 µM
HN
  IC50: > 1.02 µM
RO82-W-1
  IC50: > 1.02 µM
PC-3
  IC50: > 1.02 µM
BXPC-3
  IC50: > 1.02 µM
HuP-T3
  IC50: > 1.02 µM
LU-165
  IC50: > 1.02 µM
GAMG
  IC50: > 1.02 µM
NCI-H1963
  IC50: > 1.02 µM
NCI-H2081
  IC50: > 1.02 µM
CAKI-1
  IC50: > 1.02 µM
CAL-148
  IC50: 0.223 µM
NCI-H596
  IC50: > 1.02 µM
GP5d
  IC50: > 1.02 µM
SNU-387
  IC50: > 1.02 µM
KYSE-510
  IC50: > 1.02 µM
RVH-421
  IC50: > 1.02 µM
NCI-H28
  IC50: > 1.02 µM
LB647-SCLC
  IC50: 0.622 µM
HO-1-N-1
  IC50: > 1.02 µM
NCI-H1563
  IC50: > 1.02 µM
DG-75
  IC50: > 1.02 µM
MEL-HO
  IC50: > 1.02 µM
IMR-5
  IC50: > 1.02 µM
HT-1080
  IC50: > 1.02 µM
M059J
  IC50: > 1.02 µM
SW1463
  IC50: > 1.02 µM
BL-70
  IC50: 0.108 µM
NCI-H630
  IC50: > 1.02 µM
NCI-H2171
  IC50: 0.622 µM
SUP-T1
  IC50: 0.265 µM
OVCAR-3
  IC50: > 1.02 µM

## Cn1cnc2c(F)c(Nc3ccc(Br)cc3Cl)c(C(=O)NOCCO)cc21 [SELUMETINIB]
CAL-85-1
  IC50: > 4 µM
IGR-1
  IC50: > 4 µM
COLO-680N
  IC50: > 4 µM
CAL-54
  IC50: 1.49 µM
NCI-H2052
  IC50: > 4 µM
GMS-10
  IC50: > 4 µM
VM-CUB-1
  IC50: 3.97 µM
SK-LU-1
  IC50: 3.86 µM
HCC1419
  IC50: > 4 µM
BCPAP
  IC50: 2.13 µM
OC-314
  IC50: > 4 µM
HN
  IC50: 1 µM
RO82-W-1
  IC50: > 4 µM
PC-3
  IC50: > 4 µM
BXPC-3
  IC50: > 4 µM
HuP-T3
  IC50: > 4 µM
GAMG
  IC50: > 4 µM
CAKI-1
  IC50: > 4 µM
NCI-H596
  IC50: > 4 µM
GP5d
  IC50: > 4 µM
SNU-387
  IC50: > 4 µM
KYSE-510
  IC50: > 4 µM
RVH-421
  IC50: 0.279 µM
NCI-H28
  IC50: > 4 µM
KNS-62
  IC50: > 4 µM
HO-1-N-1
  IC50: 0.741 µM
NCI-H1563
  IC50: > 4 µM
MEL-HO
  IC50: 0.139 µM
HT-1080
  IC50: 2.43 µM
M059J
  IC50: > 4 µM
SW1463
  IC50: > 4 µM
NCI-H630
  IC50: > 4 µM
OVCAR-3
  IC50: > 4 µM

## CC(C)c1ccccc1Cc1cc(C(=O)Nc2ccc(S(=O)(=O)c3ccccc3C(C)(C)C)cc2)c(O)c(O)c1O
CAL-85-1
  IC50: 1.43 µM
IGR-1
  IC50: 0.301 µM
COLO-680N
  IC50: 1.43 µM
CAL-54
  IC50: 0.161 µM
NCI-H2052
  IC50: 1.39 µM
GMS-10
  IC50: 0.443 µM
SK-LU-1
  IC50: 0.711 µM
HCC1419
  IC50: 0.918 µM
BCPAP
  IC50: 0.242 µM
OC-314
  IC50: 0.21 µM
HN
  IC50: 0.231 µM
RO82-W-1
  IC50: 0.398 µM
PC-3
  IC50: 0.715 µM
BXPC-3
  IC50: 2.48 µM
HuP-T3
  IC50: 1.29 µM
GAMG
  IC50: 0.212 µM
CAKI-1
  IC50: 0.216 µM
NCI-H596
  IC50: 3.32 µM
GP5d
  IC50: 0.782 µM
SNU-387
  IC50: 0.248 µM
KYSE-510
  IC50: 0.222 µM
RVH-421
  IC50: 0.253 µM
NCI-H28
  IC50: 0.447 µM
KNS-62
  IC50: 0.559 µM
HO-1-N-1
  IC50: 1.42 µM
NCI-H1563
  IC50: 0.124 µM
MEL-HO
  IC50: 0.0882 µM
HT-1080
  IC50: 0.256 µM
M059J
  IC50: 1.3 µM
SW1463
  IC50: 64.8 µM
NCI-H630
  IC50: 0.808 µM
OVCAR-3
  IC50: 0.379 µM
